Calls of active or inactive are those of the source. The rule behind the calls is not given here.

Series [1] can be described thus: Binding affinity to amyloid beta (1 to 42) after 3 hrs using [125I]IMSB by gamma counter method.
A short description of series [2]: Binding affinity to amyloid beta (1 to 40) after 3 hrs using [125I]IMSB by gamma counter method.
Series [3] in a line: Ratio of drug uptake in hippocampus to cerebellum in transgenic Tg2576 mouse brain. The following applies: in vivo.
Series [4] deals with Mus musculus. The series is described as follows: In vivo binding affinity to amyloid beta (1 to 42) in double transgenic APP/PS-1 mouse brain at 100 uM after 30 mins by microscopy. The class given is functional, organism-based.
Series [5] relates to Mus musculus. Briefly: In vivo binding affinity to amyloid beta (1 to 42) in wild type mouse brain at 100 uM after 30 mins by microscopy. It counts as functional, organism-based.
Series [6] relates to Femur. Briefly: Biodistribution in ICR mouse Femur at 1.11 MBq, iv after 2 mins. It counts as ADME, organism-based. The following applies: in vivo.
Series [7] concerns Femur. The series is described as follows: Biodistribution in ICR mouse Femur at 1.11 MBq, iv after 30 mins. Conditions: in vivo, 0.5 h. The class given is ADME, organism-based.
In series [8] the test system is Femur. Briefly: Biodistribution in ICR mouse Femur at 1.11 MBq, iv after 60 mins. The class given is ADME, organism-based. The following applies: in vivo, 1 h.
Series [9] has as its system Femur. Briefly: Biodistribution in ICR mouse Femur at 1.11 MBq, iv after 120 mins. The class given is ADME, organism-based. Conditions: in vivo, 2 h.
Series [10] deals with Brain. The series is described as follows: Biodistribution in ICR mouse Brain at 1.11 MBq, iv after 2 mins. Conditions: in vivo. The class given is ADME, organism-based.
In series [11] the test system is Brain. Briefly: Biodistribution in ICR mouse Brain at 1.11 MBq, iv after 30 mins. It counts as ADME, organism-based. Conditions: in vivo, 0.5 h.
Series [12] relates to Brain. Briefly: Biodistribution in ICR mouse Brain at 1.11 MBq, iv after 60 mins. The class given is ADME, organism-based. The following applies: in vivo, 1 h.
Series [13] has as its system Brain. Briefly: Biodistribution in ICR mouse Brain at 1.11 MBq, iv after 120 mins. The class given is ADME, organism-based. The following applies: in vivo, 2 h.
The nature of series [14]: Octanol-water partition coefficient, log P of the compound by TLC analysis. The class given is physicochemical.
Series [15] relates to Blood. Briefly: Biodistribution in ICR mouse blood at 1.11 MBq, iv after 2 mins. It counts as ADME, organism-based. Conditions: in vivo.
Series [16] relates to Blood. The series is described as follows: Biodistribution in ICR mouse blood at 1.11 MBq, iv after 30 mins. It counts as ADME, organism-based. Conditions: in vivo, 0.5 h.
Series [17] deals with Blood. Briefly: Biodistribution in ICR mouse blood at 1.11 MBq, iv after 60 mins. The class given is ADME, organism-based. Conditions: in vivo, 1 h.
The test system of series [18] is Blood. The series is described as follows: Biodistribution in ICR mouse blood at 1.11 MBq, iv after 120 mins. The class given is ADME, organism-based. Conditions: in vivo, 2 h.
The test system of series [19] is Heart. The series is described as follows: Biodistribution in ICR mouse heart at 1.11 MBq, iv after 2 mins. The class given is ADME, organism-based. The following applies: in vivo.
Series [20] concerns Heart. The series is described as follows: Biodistribution in ICR mouse heart at 1.11 MBq, iv after 30 mins. Conditions: in vivo, 0.5 h. The class given is ADME, organism-based.
Series [21] deals with Heart. Briefly: Biodistribution in ICR mouse heart at 1.11 MBq, iv after 60 mins. It counts as ADME, organism-based. Conditions: in vivo, 1 h.
Series [22] relates to Heart. The series is described as follows: Biodistribution in ICR mouse heart at 1.11 MBq, iv after 120 mins. The class given is ADME, organism-based. Conditions: in vivo, 2 h.
In series [23] the test system is Lung. The series is described as follows: Biodistribution in ICR mouse Lung at 1.11 MBq, iv after 2 mins. It counts as ADME, organism-based. Conditions: in vivo.
Series [24] relates to Lung. The series is described as follows: Biodistribution in ICR mouse Lung at 1.11 MBq, iv after 30 mins. Conditions: in vivo, 0.5 h. The class given is ADME, organism-based.
The subject of series [25] is Lung. The series is described as follows: Biodistribution in ICR mouse Lung at 1.11 MBq, iv after 60 mins. It counts as ADME, organism-based. The following applies: in vivo, 1 h.
Series [26] deals with Lung. Briefly: Biodistribution in ICR mouse Lung at 1.11 MBq, iv after 120 mins. It counts as ADME, organism-based. The following applies: in vivo, 2 h.
Series [27] relates to Liver. The series is described as follows: Biodistribution in ICR mouse Liver at 1.11 MBq, iv after 2 mins. The class given is ADME, organism-based. Conditions: in vivo.
In series [28] the test system is Liver. Briefly: Biodistribution in ICR mouse Liver at 1.11 MBq, iv after 30 mins. It counts as ADME, organism-based. The following applies: in vivo, 0.5 h.
For series [29], the system named is Liver. Briefly: Biodistribution in ICR mouse Liver at 1.11 MBq, iv after 60 mins. The class given is ADME, organism-based. The following applies: in vivo, 1 h.
Series [30] relates to Liver. The series is described as follows: Biodistribution in ICR mouse Liver at 1.11 MBq, iv after 120 mins. The class given is ADME, organism-based. Conditions: in vivo, 2 h.
For series [31], the system named is Spleen. Briefly: Biodistribution in ICR mouse Spleen at 1.11 MBq, iv after 2 mins. The class given is ADME, organism-based. The following applies: in vivo.
Series [32] has as its system Spleen. The series is described as follows: Biodistribution in ICR mouse Spleen at 1.11 MBq, iv after 30 mins. The class given is ADME, organism-based. The following applies: in vivo, 0.5 h.
Series [33] deals with Spleen. The series is described as follows: Biodistribution in ICR mouse Spleen at 1.11 MBq, iv after 60 mins. The following applies: in vivo, 1 h. The class given is ADME, organism-based.
In series [34] the test system is Spleen. Briefly: Biodistribution in ICR mouse Spleen at 1.11 MBq, iv after 120 mins. The class given is ADME, organism-based. Conditions: in vivo, 2 h.
In series [35] the test system is Kidney. The series is described as follows: Biodistribution in ICR mouse Kidney at 1.11 MBq, iv after 2 mins. Conditions: in vivo. It counts as ADME, organism-based.
For series [36], the system named is Kidney. The series is described as follows: Biodistribution in ICR mouse Kidney at 1.11 MBq, iv after 30 mins. The following applies: in vivo, 0.5 h. The class given is ADME, organism-based.
The subject of series [37] is Kidney. The series is described as follows: Biodistribution in ICR mouse Kidney at 1.11 MBq, iv after 60 mins. It counts as ADME, organism-based. Conditions: in vivo, 1 h.
Series [38] has as its system Kidney. Briefly: Biodistribution in ICR mouse Kidney at 1.11 MBq, iv after 120 mins. It counts as ADME, organism-based. Conditions: in vivo, 2 h.
For series [39], the system named is Muscle tissue. The series is described as follows: Biodistribution in ICR mouse Muscle at 1.11 MBq, iv after 2 mins. It counts as ADME, organism-based. The following applies: in vivo.
In series [40] the test system is Muscle tissue. The series is described as follows: Biodistribution in ICR mouse Muscle at 1.11 MBq, iv after 30 mins. The following applies: in vivo, 0.5 h. The class given is ADME, organism-based.
The test system of series [41] is Muscle tissue. The series is described as follows: Biodistribution in ICR mouse Muscle at 1.11 MBq, iv after 60 mins. The class given is ADME, organism-based. The following applies: in vivo, 1 h.
The test system of series [42] is Muscle tissue. Briefly: Biodistribution in ICR mouse Muscle at 1.11 MBq, iv after 120 mins. It counts as ADME, organism-based. Conditions: in vivo, 2 h.

`COc1cc(/C=C/C(=O)CC(=O)/C=C/c2ccc(O)c(OC)c2)ccc1O` [CURCUMIN] returned a Ki in series [1] of 3.57 nM.

For `COc1cc(/C=C/C(O)=C/C(=O)/C=C/c2ccc(OCCC[18F])c(OC)c2)ccc1O`, the affinity in [2] corresponds to a Ki of 0.07 nM. The Ratio in series [3] turned out to be 3.

Take `[11CH3]Nc1ccc(-c2nc3ccc(O)cc3s2)cc1` [PITTSBURGH COMPOUND B]: the Ki in series [1] came out at […].

Turning to `COc1ccc(/C=C/C(=O)/C=C(O)/C=C/c2ccc(OCCOCCF)c(OC)c2)cc1OC`, affinity in [1] was put at a Ki of 3.01 nM.

The compound `[11CH3]Nc1ccc(-c2nc3ccc(O)cc3s2)cn1` showed a Ki in series [1] of 1.7 nM.

The compound `COc1ccc(/C=C/c2ccc(/C=C/c3ccc(OC)c(C(=O)O)c3)c([125I])c2)cc1C(=O)O` returned a Kd in [1] of 1.19 nM.

In series [1], `O=C(O)c1cc(/N=N/c2ccc(-c3ccc(/N=N/c4ccc(O)c(C(=O)O)c4)cc3)cc2)ccc1O` [CHRYSAMINE G] returned a Ki of 0.43 nM.

In [1], `COc1ccc(/C=C/C(=O)/C=C(O)/C=C/c2ccc(OCCF)c(OC)c2)cc1OC` registered a Ki of 2.12 nM. In addition, the outcome in series [4] was Active. Besides, the outcome in [5] was inactive.

Turning to `COc1ccc(/C=C/C(=O)/C=C(O)/C=C/c2ccc(OCC[18F])c(OC)c2)cc1OC`, the Drug uptake was determined as 1.86 % ID/g in [6]; 1.08 % ID/g in series [7]; 1 % ID/g in series [8]; 1.62 % ID/g in series [9]; 1.44 % ID/g in [10]; 0.45 % ID/g in series [11]. Besides, the Drug uptake was 0.43 % ID/g in [12]; 0.29 % ID/g in [13]; 9.76 % ID/g in series [15]; 1.26 % ID/g in series [16]; 0.89 % ID/g in series [17]; 0.67 % ID/g in [18]. For the same compound, the Drug uptake in series [19] worked out at 7.18 % ID/g; in [20] it was 1.68 % ID/g; in series [21], 1.3 % ID/g; in series [22] it was 1.54 % ID/g; in [23], 23.78 % ID/g; in [24], 3.94 % ID/g. The Drug uptake in [25] was 2.27 % ID/g; in series [26], 2.19 % ID/g; in [27], 38.83 % ID/g; in series [28], 43.02 % ID/g; in [29], 26.83 % ID/g; in series [30], 12.51 % ID/g. The Drug uptake is on record as 16.41 % ID/g in series [31]; 20.8 % ID/g in series [32]; 10.59 % ID/g in series [33]; 8.08 % ID/g in series [34]; 10.95 % ID/g in [35]; 4.01 % ID/g in [36]. In addition, the Drug uptake in series [37] was found to be 2.25 % ID/g; in series [38] it was 1.42 % ID/g; in series [39], 0.89 % ID/g; in [40], 0.76 % ID/g; in series [41], 0.47 % ID/g; in series [42], 0.37 % ID/g. Besides, the logP in series [14] came out at 2.4.

For `COc1cc(/C=C/C(=O)/C=C(O)/C=C/c2ccc(OCCOCCOCCF)c(OC)c2)ccc1O`, the Ki in series [1] amounted to 4.44 nM.

Consider `COc1ccc(/C=C/C(=O)/C=C(O)/C=C/c2ccc(OCCCF)c(OC)c2)cc1OC`, for which the Ki in [1] was found to be 2.69 nM.

Regarding `COc1cc(/C=C/C(=O)/C=C(O)/C=C/c2ccc(OCCOCCF)c(OC)c2)ccc1O`, the Ki in [1] is 4.65 nM.

For the origin of these results see ChEMBL document CHEMBL1833866, “Synthesis and evaluation of 1-(4-[¹⁸F]fluoroethyl)-7-(4'-methyl)curcumin with improved brain permeability for β-amyloid plaque imaging” (Bioorg Med Chem Lett, 2011).
